Measurements reported in the supplement of paper PMC11451515.

System: NOMO1
Assay: cell viability relative to DMSO control; higher = less cytotoxic
Settings: 48 h
Method in brief: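 Library compounds in DMSO were pin-dosed in an 11-point threefold series (47 μM to 0.79 nM) onto leukemia cells in 1536-well plates (5 μl). Plates held 500 cells/well of NOMO1 or SEM or 1000 cells/well of P12-Ichikawa, each adapted for at least four passages in each medium. Luminescence was read with CellTiter-Glo One after 48 h at 37°C. Viability means the per-plate percentage relative to DMSO wells, using cell-free wells as background.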

[1] = HPLM + 10% dialyzed FBS, 0.000781 µM
[2] = HPLM + 10% dialyzed FBS, 0.00234 µM
[3] = HPLM + 10% dialyzed FBS, 0.00702 µM
[4] = HPLM + 10% dialyzed FBS, 0.0211 µM
[5] = HPLM + 10% dialyzed FBS, 0.0632 µM
[6] = HPLM + 10% dialyzed FBS, 0.19 µM
[7] = HPLM + 10% dialyzed FBS, 0.569 µM
[8] = HPLM + 10% dialyzed FBS, 1.71 µM
[9] = HPLM + 10% dialyzed FBS, 5.12 µM
[10] = HPLM + 10% dialyzed FBS, 15.4 µM
[11] = HPLM + 10% dialyzed FBS, 46.1 µM
[12] = RPMI 5 mM glucose + 10% FBS, 0.000781 µM
[13] = RPMI 5 mM glucose + 10% FBS, 0.00234 µM
[14] = RPMI 5 mM glucose + 10% FBS, 0.00702 µM
[15] = RPMI 5 mM glucose + 10% FBS, 0.0211 µM
[16] = RPMI 5 mM glucose + 10% FBS, 0.0632 µM
[17] = RPMI 5 mM glucose + 10% FBS, 0.19 µM
[18] = RPMI 5 mM glucose + 10% FBS, 0.569 µM
[19] = RPMI 5 mM glucose + 10% FBS, 1.71 µM
[20] = RPMI 5 mM glucose + 10% FBS, 5.12 µM
[21] = RPMI 5 mM glucose + 10% FBS, 15.4 µM
[22] = RPMI 5 mM glucose + 10% FBS, 46.1 µM
[23] = RPMI 5 mM glucose + 10% dialyzed FBS, 0.000781 µM
[24] = RPMI 5 mM glucose + 10% dialyzed FBS, 0.00234 µM
[25] = RPMI 5 mM glucose + 10% dialyzed FBS, 0.00702 µM
[26] = RPMI 5 mM glucose + 10% dialyzed FBS, 0.0211 µM
[27] = RPMI 5 mM glucose + 10% dialyzed FBS, 0.0632 µM
[28] = RPMI 5 mM glucose + 10% dialyzed FBS, 0.19 µM
[29] = RPMI 5 mM glucose + 10% dialyzed FBS, 0.569 µM
[30] = RPMI 5 mM glucose + 10% dialyzed FBS, 1.71 µM
[31] = RPMI 5 mM glucose + 10% dialyzed FBS, 5.12 µM
[32] = RPMI 5 mM glucose + 10% dialyzed FBS, 15.4 µM
[33] = RPMI 5 mM glucose + 10% dialyzed FBS, 46.1 µM

SMILES | cell viability [1] [%] | cell viability [2] [%] | cell viability [3] [%] | cell viability [4] [%] | cell viability [5] [%] | cell viability [6] [%] | cell viability [7] [%] | cell viability [8] [%] | cell viability [9] [%] | cell viability [10] [%] | cell viability [11] [%] | cell viability [12] [%] | cell viability [13] [%] | cell viability [14] [%] | cell viability [15] [%] | cell viability [16] [%] | cell viability [17] [%] | cell viability [18] [%] | cell viability [19] [%] | cell viability [20] [%] | cell viability [21] [%] | cell viability [22] [%] | cell viability [23] [%] | cell viability [24] [%] | cell viability [25] [%] | cell viability [26] [%] | cell viability [27] [%] | cell viability [28] [%] | cell viability [29] [%] | cell viability [30] [%] | cell viability [31] [%] | cell viability [32] [%] | cell viability [33] [%]
C[C@]12CCC(=O)C=C1CC[C@@H]1[C@@H]2[C@@H](O)C[C@@]2(C)[C@H]1CC[C@]2(O)C(=O)CO | 99 | 109 | 121 | 127 | 117 | 125 | 120 | 115 | 102 | 121 | 109 | 110 | 98.3 | 108 | 112 | 100 | 129 | 129 | 111 | 111 | 105 | 120 | 119 | 111 | 106 | 118 | 116 | 113 | 130 | 125 | 118 | 116 | 127
O=C(O)Cn1nnc(-c2cc(N3CCC(Oc4cc(F)ccc4Br)CC3)no2)n1 | 96 | 97.7 | 97.2 | 111 | 108 | 99.6 | 106 | 34.7 | 29.9 | 24.4 | 24.6 | 102 | 105 | 106 | 109 | 109 | 106 | 104 | 22.9 | 22.1 | 16 | 16.6 | 83.1 | 109 | 100 | 104 | 115 | 113 | 112 | 45.2 | 31.9 | 25.4 | 22.8
CC[C@]12CC[C@H]3[C@@H](CCC/4=C/C(=O)CC[C@H]34)[C@@H]1\C=C/[C@@]2(O)C#C | 118 | 116 | 132 | 133 | 128 | 113 | 137 | 146 | 133 | 138 | 124 | 110 | 120 | 120 | 123 | 122 | 138 | 133 | 121 | 112 | 130 | 139 | 116 | 133 | 122 | 124 | 126 | 111 | 137 | 133 | 138 | 140 | 132
COc1ccc([S+](=O)([O-])N(C(C)=O)c2ccccc2/C=C/c2cc[n+]([O-])cc2)cc1 | – | – | – | – | – | – | – | – | – | – | – | 116 | 106 | 129 | 114 | 105 | 112 | 130 | 44.5 | 21 | 24.4 | 22.6 | 108 | 111 | 116 | 126 | 115 | 121 | 122 | 46.4 | 25.3 | 26.8 | 28.4
Cc1cnn(C)c1C(=O)Nc1cc(Nc2ccc3c(/C=C/c4ccccn4)n[nH]c3c2)ccc1F | 119 | 125 | 124 | 141 | 129 | 113 | 143 | 120 | 102 | 70.4 | 12.9 | – | – | – | – | – | – | – | – | – | – | – | – | – | – | – | – | – | – | – | – | – | –
CN1CCN(C2=Nc3cc(Cl)ccc3Nc3ccccc32)CC1 | 103 | 100 | 110 | 111 | 116 | 119 | 113 | 132 | 112 | 106 | 59.3 | 98.6 | 94.3 | 102 | 98.4 | 107 | 101 | 103 | 96.3 | 106 | 106 | 102 | 87.5 | 99.6 | 99.7 | 90.1 | 115 | 106 | 110 | 99.3 | 103 | 97.9 | 78.4
CCC[S+]([O-])c1ccc2[nH]c(NC(=O)OC)nc2c1 (stereo unspecified) | 102 | 81.8 | 100 | 106 | 98.5 | 109 | 95 | 79.5 | 93.5 | 72.2 | 18.7 | 88.2 | 96.6 | 94.2 | 103 | 101 | 89.9 | 101 | 82 | 93.8 | 71.2 | 15.5 | 94.5 | 91.3 | 94.7 | 87.4 | 84.9 | 88.8 | 81.7 | 76.4 | 81.2 | 58.4 | 19.4
CNCC(O)c1ccc(O)cc1 (stereo unspecified) | 114 | 106 | 116 | 103 | 116 | 125 | 129 | 109 | 128 | 113 | 134 | 96.7 | 104 | 118 | 116 | 112 | 103 | 125 | 118 | 127 | 120 | 121 | 106 | 122 | 109 | 119 | 104 | 118 | 108 | 113 | 125 | 130 | 120
